Data on six compounds can be found in article PMC8899820, “Pharmacokinetics, Tissue Distribution, and Excretion Characteristics of a Radix Polygoni Multiflori Extract in Rats” (Frontiers in Pharmacology, 2022).

Like-named read-outs stand apart in the source and are kept apart here. Some results are limits rather than exact numbers.

The conditions of series [1]: RPM extract 36 g/kg p.o., rat plasma, Mean ± SD, n = 6; ref Cheng et al., 2020; cited from earlier work.
Series [2] is described as follows: Tissue distribution of RPM constituents after oral RPM extract. The following applies: Sprague-Dawley, rat, po, 18 g/kg.
Procedure: For the tissue distribution study, 18 rats were randomly divided into three groups (n = 6, each) and orally administered 18 g/kg RPM extract. The rats under isoflurane anesthesia were sacrificed by bleeding from the abdominal aorta at 5, 15, and 60 min (six rats per time point) after gavage with 18 g/kg RPM extract. Subsequently, the heart, liver, spleen, lung, kidney, brain, stomach, small intestine, bladder, and gonads (testes of male rats, and uterus and ovaries of female rats) were immediately collected. An accurately weighed amount of fresh tissue sample (0.25 g) was individually homogenized with normal saline (1 ml) and transferred (50 μL) as a tissue homogenate to 1.5 ml centrifuge tubes for use as the tissue samples. All tissue samples were stored at −70°C until analysis.
Samples were prepared using the protein precipitation process. […] The tissue samples were homogenized in four parts of ice-cold 0.9% saline solution and then centrifuged at 4°C and 12,000 × g for 10 min to obtain tissue homogenates. […] Tissue homogenate, urine, bile and fecal samples were subjected to a similar process as the rat plasma samples.
For the tissue distribution study, 18 rats were randomly divided into three groups (n=6, each), and orally administered with 18 g/kg RPM extract. The rats were sacrificed at 5, 15, 60 min after orally administering RPM. Subsequently, the heart, liver, spleen, lung, kidney, brain, stomach, small intestine, bladder, gonad (testes of male rats, uterus and ovaries of female rats) were immediately collected. An accurately weighed amount of fresh tissue sample (0.25 g) was individually homogenized with normal saline (1 mL) and transferred (50 μL) as a tissue homogenate to 1.5 mL centrifuge tubes for use as the tissue samples.
Series [3] can be described thus: Plasma pharmacokinetics of RPM constituents after oral RPM extract. Particulars: for plasma concentrations: RPM extract 6, 18 and 36 g/kg p.o.
Source text: For the pharmacokinetic (PK) study, three groups (n = 6 each) of rats were orally administered RPM extract (6, 18, and 36 g/kg). In the plasma pharmacokinetics experiment, doses were 6, 18, and 36 g/kg for the single administration group and 18 g/kg for the continuous administration group. The doses were set at a subtoxic level ([Zhang et al., 2013]; [Wang et al., 2015]) to investigate the pharmacokinetic profiles of the constituents of RPM (36 g/kg group) and were approximately 60 times the upper dose (6 g/day) for humans recommended by the 2020 edition of Chinese Pharmacopoeia ([Chinese Pharmacopoeia Commission, 2020]), which was converted to a dose for rats based on body surface area conversion ([Reagan-Shaw et al., 2008]). In addition, the low and medium doses decreased in a certain proportion. Serial blood samples (∼120 μL; before dosing and at 5, 15, and 30 min, and 1, 2, 4, 6, 8, 12, and 24 h after administration) were collected in heparinized tubes from the orbital sinus under light isoflurane. The blood samples were centrifuged at 12000 g for 2 min, and the plasma fractions were decanted and frozen at −70°C until analysis.
Samples were prepared using the protein precipitation process. Rat plasma (50 μL) spiked with 10 μL of IS (puerarin 100 ng/ml) was extracted with 150 μL acetonitrile. After vortex shaking for 5 min and centrifugation at 14,000 g for 5 min, 150 μL of the organic layer was transferred to a clean tube and evaporated to dryness at 25°C under a stream of nitrogen. The residue was reconstituted in 50 μL of the initial mobile phase and subjected to another round of centrifugation at 14,000 g for 5 min, and 5 μL of the supernatant was injected for LC–MS/MS analysis.
The analysis was performed on an AB Sciex API 5500 Q Trap mass spectrometer (Toronto, Canada), interfaced with a Waters Acquity UPLC separation module.
(§1) The pharmacokinetic parameters, including the area under the plasma concentration-time curve from time zero to time t (AUC0-t) to time infinity (AUC0-∞), the time to reach the maximum plasma concentration (T max), the elimination half-time (t 1/2), and the maximum plasma concentration (C max), were calculated using the pharmacokinetic software Phoenix® WinNonlin®, version 7.0 (Scientific Consulting Inc., Apex, NC, United States). Data are expressed as the mean ± standard deviation (SD) for each group. The dose-exposure relationship was evaluated by the power function model combined with the confidence interval method ([Smith et al., 2000]; [Sethuraman et al., 2007]; [Hummel et al., 2009]). First, the administration dose, AUC0-∞ and C max were logarithmically transformed, and then a linear regression was performed to obtain the curve correlation coefficient (R^2), slope and 90% confidence interval (90% CI).
The nature of series [4]: Dose-exposure relationship (power function model with confidence interval method).
Procedure: as §1
A short description of series [5]: Biliary excretion in bile duct drained rats after oral RPM extract. The following applies: single p.o. RPM extract 18 g/kg, rat bile.
Procedure: (§2) For the excretion study, the rats were housed singly in metabolic cages with urine collection tubes kept at 4 °C during sample collection. Urine and fecal samples were collected at time intervals of 0–4, 4–8, 8–24, 24–32, and 32–48 h after a single dose of RPM extract at 18 g/kg and then weighed. Another six rats were anesthetized with pentobarbital, fixed in the supine position and subjected to bile duct drainage surgery, and the abdominal wound was sutured. Blank bile samples were collected before the administration of RPM. The rats were weighed, and the state of the rats was observed. Subsequently, they were orally administered 18 g/kg RPM extract. The bile samples were collected at time intervals of 0–1, 1–2, 2–4, 4–6, 6–8, 8–24, 24–32 and 32–48 h. The urine, feces, and bile samples were stored at −70°C until use.
(§3) Samples were prepared using the protein precipitation process. […] After vortex shaking for 5 min and centrifugation at 14,000 g for 5 min, 150 μL of the organic layer was transferred to a clean tube and evaporated to dryness at 25°C under a stream of nitrogen. The residue was reconstituted in 50 μL of the initial mobile phase and subjected to another round of centrifugation at 14,000 g for 5 min, and 5 μL of the supernatant was injected for LC–MS/MS analysis. […] Urine and bile samples were centrifuged at 4°C and 12,000 × g for 15 min. Fecal samples were homogenized in 0.9% saline and then centrifuged at 4°C and 12,000 × g for 15 min to gather the fecal homogenates. Tissue homogenate, urine, bile and fecal samples were subjected to a similar process as the rat plasma samples.
(§4) For the excretion study, 6 rats were placed in metabolic cage after orally administered with 18 g/kg RPM extract, and urine, feces samples were collected at time intervals of 0–4, 4–8, 8–24, 24–32, 32–48, 48–60, and 60–72 h. Another 6 rats were anesthetized with pentobarbital, fixed in the supine position and performed bile duct drainage operation, and the abdominal wound was sutured. […] Subsequently, they were orally administered with 18 g/kg RPM extract. The bile samples were collected at time intervals of 0–1, 1–2, 2–4, 4–6, 6–8, 8–24, 24–32 and 32–48 h. The urine, feces, and bile samples were stored at −70 °C until use.
A short description of series [6]: Excretion into urine and feces and mass balance after oral RPM extract. Particulars: for dose excreted: Sprague-Dawley, rat, po.
Procedure: as §2, §3, §4
Setting [7] is: both, bladder, AUC0-t in bladder, rat tissue: bladder, 18 g/kg RPM extract p.o., tissues collected at 5, 15, 60 min.
Setting [8] is: both, heart, AUC0-t in heart, rat tissue: heart, 18 g/kg RPM extract p.o., tissues collected at 5, 15, 60 min.
The mark [9] stands for this setting: both, intestine, AUC0-t in intestine, rat tissue: intestine, 18 g/kg RPM extract p.o., tissues collected at 5, 15, 60 min.
[10] abbreviates: both, kidney, AUC0-t in kidney, rat tissue: kidney, 18 g/kg RPM extract p.o., tissues collected at 5, 15, 60 min.
Where [11] appears, read: both, liver, AUC0-t in liver, rat tissue: liver, 18 g/kg RPM extract p.o., tissues collected at 5, 15, 60 min.
[12] abbreviates: both, lung, AUC0-t in lung, rat tissue: lung, 18 g/kg RPM extract p.o., tissues collected at 5, 15, 60 min.
Setting [13] is: both, spleen, AUC0-t in spleen, rat tissue: spleen, 18 g/kg RPM extract p.o., tissues collected at 5, 15, 60 min.
Where [14] appears, read: both, stomach, AUC0-t in stomach, rat tissue: stomach, 18 g/kg RPM extract p.o., tissues collected at 5, 15, 60 min.
The mark [15] stands for this setting: female, uterus, AUC0-t in uterus, rat tissue: uterus, 18 g/kg RPM extract p.o., tissues collected at 5, 15, 60 min.
[16] abbreviates: Sprague-Dawley, rat, plasma, po, 6 g/kg.
[17] abbreviates: Sprague-Dawley, rat, plasma, po, 18 g/kg.
Setting [18] is: AUC0-∞ vs p.o. dose of RPM extract, critical interval 0.88–1.12.
[19] abbreviates: C max vs p.o. dose of RPM extract, critical interval 0.80–1.20.
The mark [20] stands for this setting: log AUC0-∞ vs log p.o. dose of RPM extract, critical interval 0.88–1.12.
Where [21] appears, read: log C max vs log p.o. dose of RPM extract, critical interval 0.80–1.20.
[22] abbreviates: female, ovary, AUC0-t in ovary, rat tissue: ovary, 18 g/kg RPM extract p.o., tissues collected at 5, 15, 60 min.
[23] abbreviates: urine and feces, recovery from the urine and feces, single p.o. RPM extract 18 g/kg, rats.
Setting [24] is: single p.o. RPM extract 18 g/kg, rat feces.
The mark [25] stands for this setting: single p.o. RPM extract 18 g/kg, rat urine.

Regarding `Cc1cc(O)c2c(c1)C(=O)c1cccc(O)c1C2=O` [Chrysophanol], the “AUC0-∞” value in series [1] is 0.0404 ± 0.00736 µM·h. Besides, the AUC(0-t) – broadly, exposure summed from dosing to a finite time, without extrapolation to infinity – in series [1] was 0.0169 ± 0.00647 µM·h; in series [2] (setting [7]) it was 0.0376 µM·h; in series [2] (setting [8]), 0.0311 µM·h; in series [2] (setting [9]) it was 0.0277 µM·h; in series [2] (setting [10]), 0.0132 µM·h; in series [2] (setting [11]) it was 0.0273 µM·h. The AUC(0-t) in series [2] (setting [12]) amounted to 0.0476 µM·h; in series [2] (setting [13]) it was 0.0503 µM·h; in series [2] (both, spleen, AUC0-t in the spleen, RPM extract 18 g/kg p.o., rat spleen, sampling 5, 15, 60 min), 0.0503 µM·h; in series [2] (setting [14]) it was 0.0345 µM·h; in series [2] (setting [15]), 0.029 µM·h; in series [3] (setting [16]), 0.0748 ± 0.0589 µM·h. For the same compound, the exposure AUC(0-t) in series [3] (setting [17]) came out at 0.0198 ± 0.00941 µM·h. Moreover, the maximum concentration (Cmax) (commonly the maximum level reached in the sampled fluid or tissue) in series [1] is 7.48 ± 2.21 nM; in series [3] (setting [16]), 9.36 ± 3.26 nM; in series [3] (setting [17]), 7.87 ± 2.19 nM. Also, the total exposure AUC(0-inf) (in general, total exposure, with the tail of the curve extrapolated) in series [3] (setting [16]) came to 0.34 ± 0.195 µM·h. In series [3] (setting [16]), the mean residence time (MRT inf) (commonly the average time that molecules of a dose stay in the body) amounted to 40.3 ± 23.3 h. Moreover, the time of peak concentration (Tmax) (in general, the time at which the peak concentration occurs) in series [3] (setting [16]) amounted to 1.03 ± 0.96 h; in series [3] (setting [17]) it was 3.51 ± 3.06 h. Besides, the half-life (commonly how long it takes for the measured level to halve) in series [3] (setting [16]) is 26.3 ± 14.4 h. The “Conclusion (dose-exposure relationship)” value in series [4] (setting [18]) and in series [4] (setting [19]) was “Nonlinear correlation” throughout. Besides, the figures for the “Slope (90%CI)” value in series [4] (setting [20]) and in series [4] (setting [21]) were “–0.667 (–1.14 to –0.193)” and “–0.158 (-0.337–0.021)”, respectively.

Consider `COc1cc(O)cc2c1C(=O)c1c(O)cc(C)cc1C2=O` [questin], for which the plasma concentrations entry in series [3] (rat plasma) is reported as “too low to be detected”.

For the compound `COc1cc(O[C@@H]2O[C@H](CO)[C@@H](O)[C@H](O)[C@H]2O)c2c(c1)C(=O)c1cc(C)cc(O)c1C2=O` [PG, physcion-8-O-β-D-glucoside], the “AUC0-∞” value in series [1] is 0.188 ± 0.0186 µM·h. Further, the area under the curve AUC(0-t) was 0.178 ± 0.0201 µM·h in series [1]; 0.205 µM·h in series [2] (setting [7]); 0.125 µM·h in series [2] (both, brain, AUC0-t in brain, rat tissue: brain, 18 g/kg RPM extract p.o., tissues collected at 5, 15, 60 min); 1.64 µM·h in series [2] (setting [8]); 0.692 µM·h in series [2] (setting [9]); 3.21 µM·h in series [2] (setting [10]). Moreover, the AUC(0-t) in series [2] (setting [11]) amounted to 3.38 µM·h; in series [2] (setting [12]), 0.842 µM·h; in series [2] (setting [13]) it was 2.69 µM·h; in series [2] (setting [14]), 1.29 µM·h; in series [2] (setting [22]), 0.614 µM·h; in series [2] (setting [15]), 0.735 µM·h. For the same compound, the AUC(0-t) was 0.0806 µM·h in series [2] (male, testis, AUC0-t in testis, rat tissue: testis, 18 g/kg RPM extract p.o., tissues collected at 5, 15, 60 min); 0.0777 ± 0.00612 µM·h in series [3] (setting [16]); 0.176 ± 0.0168 µM·h in series [3] (setting [17]). The figures for the Cmax in series [1], in series [3] (setting [16]) and in series [3] (setting [17]) were 42.1 ± 10.9 nM, 16.8 ± 4.1 nM and 34.2 ± 4.59 nM, respectively. The “MRT0-∞” value in series [1] was 8.58 ± 1.72 h. For the same compound, the “t 1/2” value in series [1] is given as 6.13 ± 1.06 h. In series [5], the “cumulative excretion into bile” value was determined as 18.2 ± 3.29 nmol. Also, in series [3] (RPM extract p.o., rat plasma), the “time at which C max was exhibited” value is at most 20 min. Further, the area under the curve AUC(0-inf) in series [3] (setting [16]) worked out at 0.0919 ± 0.0145 µM·h; in series [3] (setting [17]), 0.192 ± 0.0126 µM·h. Besides, the MRT inf in series [3] (setting [16]) amounted to 7.55 ± 1.48 h; in series [3] (setting [17]), 9.64 ± 2.05 h. In addition, the Tmax in series [3] (setting [16]) is 0.29 ± 0.1 h; in series [3] (setting [17]), 0.26 ± 0.13 h. The figures for the half-life in series [3] (setting [16]) and in series [3] (setting [17]) were 4.83 ± 0.99 h and 7.09 ± 2.12 h, respectively. Besides, the “Conclusion (dose-exposure relationship)” value in series [4] (setting [18]) and in series [4] (setting [19]) was “Nonlinear correlation” each time. The “Slope (90%CI)” value in series [4] (setting [20]) is on record as 0.429 (0.326–0.532); in series [4] (setting [21]), 0.524 (0.396–0.652). Also, the dose excreted worked out at 11.6% in series [6] (feces, Recovery in feces (%), mass balance, 18 g/kg RPM extract p.o., feces collected 0–72 h); 16.4% in series [6] (setting [23]); 4.83% in series [6] (urine, Recovery in urine (%), mass balance, 18 g/kg RPM extract p.o., urine collected 0–72 h). Also, the “cumulative excretion into feces” value in series [6] (setting [24]) amounted to 13.6 ± 1.12 nmol. In series [6] (setting [25]), the “cumulative excretion into urine” value stood at 5.53 ± 2.08 nmol.

As for `COc1cc(O)cc2c1C(=O)c1c(O)cc(CO)cc1C2=O` [Questinol, questinol], the “AUC0-∞” value in series [1] is 0.0575 ± 0.00945 µM·h. For the same compound, the exposure AUC(0-t) in series [1] is 0.0473 ± 0.00685 µM·h; in series [2] (setting [7]), 0.0169 µM·h; in series [2] (setting [8]), 0.034 µM·h; in series [2] (setting [10]), 0.0243 µM·h; in series [2] (setting [11]) it was 0.0553 µM·h; in series [2] (setting [12]) it was 0.0251 µM·h. Further, the exposure AUC(0-t) in series [2] (setting [13]) worked out at 0.0103 µM·h; in series [2] (setting [14]), 0.0061 µM·h; in series [2] (setting [22]) it was 0.0168 µM·h; in series [2] (setting [15]), 0.0186 µM·h; in series [3] (setting [16]), 0.00861 ± 0.00169 µM·h; in series [3] (setting [17]) it was 0.0401 ± 0.00898 µM·h. In addition, the Cmax in series [1] was 4 ± 0.673 nM; in series [3] (setting [16]), 1.09 ± 0.317 nM; in series [3] (setting [17]) it was 3.54 ± 0.652 nM. In series [1], the “MRT0-∞” value is 13.6 ± 4.21 h. The T max in series [1] was 4.38 ± 4.03 h. In addition, the “t 1/2” value in series [1] is 8.90 ± 2.70 h. In addition, the detection in bile result in series [5] is “not detected”. Further, the AUC(0-inf) turned out to be 0.027 ± 0.0228 µM·h in series [3] (setting [16]) and 0.0583 ± 0.0143 µM·h in series [3] (setting [17]). The results for the mean residence time MRT inf in series [3] (setting [16]) and in series [3] (setting [17]) were 12.2 ± 2.93 h and 20.6 ± 13.5 h, respectively. Moreover, the Tmax is 3.5 ± 2.17 h in series [3] (setting [16]) and 1.83 ± 1.8 h in series [3] (setting [17]). Also, the figures for the half-life in series [3] (setting [16]) and in series [3] (setting [17]) were 8 ± 2.01 h and 14.4 ± 9.99 h, respectively. The “Conclusion (dose-exposure relationship)” value in series [4] (setting [18]) is “Nonlinear correlation”; in series [4] (setting [19]) it was “Uncertainty of linear relationship”. In addition, the entries for the “Slope (90%CI)” value in series [4] (setting [20]) and in series [4] (setting [21]) were 0.551 (0.275–0.827) and 0.774 (0.610–0.938), respectively. In series [6] (setting [23]), this compound yielded a dose excreted of 4.12%. Moreover, the “cumulative excretion into feces” value in series [6] (setting [24]) is 0.566 ± 0.0666 nmol. Moreover, in series [6] (setting [25]), the detection in urine result is reported as “not have been detected”.

With `O=C(O)c1cc(O)c2c(c1)C(=O)c1cccc(O)c1C2=O` [Rhein, rhein], in series [1], the “AUC0-∞” value is 0.00814 ± 0.00178 µM·h, the AUC(0-t) was 0.00391 ± 0.00223 µM·h and the Cmax was 3.74 ± 0.84 nM. The “cumulative excretion into bile” value in series [5] is 45.0 ± 8.41 nmol. In series [3] (RPM extract 18 g/kg p.o., rat plasma, Mean ± SD, n = 6), this compound returned a Cmax of 3.72 ± 1.25 nM. In series [3] (setting [17]), the AUC(0-t) worked out at 0.00426 ± 0.00299 µM·h and the Tmax is 0.42 ± 0.14 h. In series [3] (rats dosed with 6 g/kg RPM, plasma), the plasma concentration entry is “could not be detected”. Besides, the “Conclusion (dose-exposure relationship)” value in series [4] (setting [19]) is given as “Nonlinear correlation”. The “Slope (90%CI)” value in series [4] (setting [21]) is reported as 0.034 (-0.482–0.550). The detection in feces result in series [6] (setting [24]) is “not detected”. In addition, the detection in urine result in series [6] (setting [25]) is “not detected”.

Turning to `Cc1cc(O)c2c(c1)C(=O)c1cccc(O[C@@H]3O[C@H](CO)[C@@H](O)[C@H](O)[C@H]3O)c1C2=O` [CG, chrysophanol-8-O-β-D-glucoside], the plasma concentrations entry in series [3] (rat plasma) is reported as “too low to be detected”.
